The text below walks through data of PubChem BioAssay (NCI).

Each structure is given as a SMILES string.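 How tested: cells in 96-well plates exposed to compound for 48 hours at five concentrations. The concentration for full growth arrest is given as TGI.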 Where a SMILES comes first, the peptide text is derived from it. The star is where a group is joined. Cbz = O=C(OCc1ccccc1)*

Holding throughout (experiment): inhibition of tumour cell growth, NCI panel, 48 h
Assay [1] concerns CCRF-CEM leukemia.
Assay [2] has as its system HCC-2998 colon.
Assay [3] relates to HCT-116 colon.
Assay [4] concerns MOLT-4 leukemia.
Assay [5] concerns OVCAR-4 ovarian.
Assay [6] deals with PC-3 prostate.
For assay [7], the system named is RXF 393 renal.
In assay [8] the test system is SF-268 CNS.
In assay [9] the test system is SF-539 CNS.
Assay [10] deals with SNB-75 CNS.
Assay [11] concerns SW-620 colon.
Assay [12] concerns T-47D breast.

Consider `CN1CCCOC(c2ccc(Cl)cc2)O1` (stereo not drawn), for which the TGI in assay [1], in assay [2], in assay [3], in assay [4], in assay [5] and in assay [6] was greater than 100 µM each time. In addition, the TGI in [7], in assay [8], in assay [9], in [10], in assay [11] and in assay [12] was greater than 100 µM each time.

Regarding `N#Cc1cc2c(cc1Cl)Sc1nnc(Nc3ccccc3)n1S2(=O)=O`, the TGI was greater than 24 µM in [1]; 3 µM in assay [2]; 4 µM in assay [3]; 4.06 µM in assay [4]; 7.79 µM in [5]; 3.89 µM in assay [6]. For the same compound, the TGI in assay [7] is 4.48 µM; in assay [8] it was 10.5 µM; in [9], 4.41 µM; in assay [10], 10.7 µM; in assay [11], 3.13 µM; in assay [12] it was 13.3 µM.

Consider `OC(C/C=N/N=C/CC(O)(C(F)(F)Cl)C(F)(F)Cl)(C(F)(F)Cl)C(F)(F)Cl`, for which the TGI in [1], in assay [2], in assay [3], in assay [4], in [5] and in assay [6] was greater than 10 µM in each case. For the same compound, the TGI in assay [7], in assay [8], in assay [9], in [10], in [11] and in assay [12] was greater than 10 µM throughout.

In the case of `O=Cc1ccc(-c2ccc(-c3ccc(CO)s3)o2)s1`, the TGI in assay [1] was greater than 23.7 µM; in assay [2] it was 18.3 µM; in [3], greater than 40.1 µM; in [4], greater than 39 µM; in assay [5] it was greater than 100 µM; in assay [6] it was greater than 100 µM. Also, the TGI in [7] was 47.6 µM; in assay [8], greater than 76.1 µM; in [9] it was greater than 81.6 µM; in assay [10] it was 69.1 µM; in [11] it was greater than 100 µM; in assay [12], 62.3 µM.

Regarding `COc1cc2c(cc1O)NC(=O)[C@@H]1CCCN1C2=O`, the TGI in assay [1], in assay [2], in assay [3], in [4], in assay [5] and in [6] was greater than 100 µM throughout. Besides, the TGI in [7], in assay [8], in assay [9], in assay [10], in [11] and in assay [12] was greater than 100 µM in each case.

Consider `CCOC(=O)CCC(NC(=O)C(Cc1ccccc1)NC(=O)OCc1ccccc1)C(=O)OCC` (stereo not drawn) (Cbz-Phe-Glu(OEt)-OEt; configuration not given here), for which the TGI in assay [1] is greater than 64.7 µM; in assay [2], 32.1 µM; in [3] it was 32.1 µM; in [4], greater than 71.3 µM; in assay [5], 32.1 µM; in assay [6] it was 32.1 µM. The TGI in assay [7] is 32.1 µM; in [8], 34.5 µM; in [9] it was 37.6 µM; in assay [10] it was 35.1 µM; in assay [11], 34.9 µM; in assay [12], 32.2 µM.

On to `CC1CC(Nc2ccc(Br)cc2)N(C(=O)c2ccc(Br)cc2)O1` (stereo not drawn), for which the TGI in assay [1], in assay [2], in assay [3], in assay [4], in assay [5] and in assay [6] was greater than 10 µM each time. In addition, the TGI in [7], in assay [8], in assay [9], in assay [10], in assay [11] and in [12] was greater than 10 µM each time.

Regarding `CC(=O)OCC1OC(n2c(C)c(N=Nc3ccc(Cl)cc3)c(C)c(C#N)c2=S)C(OC(C)=O)C(OC(C)=O)C1OC(C)=O` (stereo not drawn), the TGI in assay [1], in assay [2], in assay [3], in [4], in assay [5] and in [6] was greater than 100 µM throughout. In addition, the TGI in [7] was 40.7 µM; in assay [8], greater than 100 µM; in assay [9] it was greater than 100 µM; in [10] it was 49.1 µM; in assay [11], greater than 100 µM; in assay [12], greater than 100 µM.

Regarding `O=C1/C(=C\c2cccc(Oc3ccccc3)c2)S(=O)(=O)C(c2ccccc2)N1c1cccc(Cl)c1` (stereo not drawn), the TGI in assay [1] is 83.9 µM; in assay [2] it was greater than 100 µM; in assay [3], greater than 100 µM; in assay [4], greater than 100 µM; in [5], greater than 100 µM; in assay [6], greater than 100 µM. The TGI in assay [7] was greater than 100 µM; in assay [8], greater than 100 µM; in assay [9] it was greater than 100 µM; in assay [10], greater than 100 µM; in assay [11], 69 µM; in assay [12] it was greater than 100 µM.

Regarding `COc1ccc(C2(CC(C)C)CCN(S(=O)(=O)c3ccc(C)cc3)C2)cc1OC` (stereo not drawn), the TGI in assay [1] was 64.3 µM; in assay [2], greater than 100 µM; in assay [3], 92.6 µM; in [4], 17.4 µM; in assay [5], greater than 100 µM; in assay [6] it was greater than 100 µM. In addition, the TGI in [7] is greater than 100 µM; in assay [8], 95.4 µM; in [9], greater than 100 µM; in assay [10], greater than 100 µM; in [11] it was greater than 100 µM; in [12], greater than 100 µM.

Take `Cc1ccc2c(c1)CC1(Cc3cccc(C)c3C1=O)C2=O` (stereo not drawn): the TGI in [1], in assay [2], in assay [3], in assay [4], in [5] and in assay [6] was greater than 100 µM in each case. The TGI in assay [7] is greater than 100 µM; in assay [8] it was greater than 100 µM; in [9], greater than 100 µM; in assay [10] it was greater than 100 µM; in [11], greater than 100 µM; in [12], greater than 10 µM.

Consider `COCCn1cnc2c(Cl)nc(Nc3ccccc3)nc21`, for which the TGI in assay [1] was 46.9 µM; in [2], 40 µM; in assay [3] it was greater than 100 µM; in assay [4] it was 60.5 µM; in assay [5] it was 46.7 µM; in assay [6], 56.4 µM. The TGI in [7] is 47.4 µM; in assay [8] it was greater than 100 µM; in [9], greater than 100 µM; in assay [10], greater than 100 µM; in assay [11] it was greater than 100 µM; in [12] it was greater than 100 µM.

`CC(=O)O[C@@]12CO[C@@H]1CC(O)[C@@]1(C)C(=O)[C@H](O)C3=C(C)C(O)C[C@@](O)(C(OC(=O)c4ccccc4)C12)C3(C)C` (stereo partly drawn): the TGI in assay [1] was greater than 100 µM; in assay [2] it was 21.6 µM; in [3], 19.2 µM; in assay [4] it was greater than 31.6 µM; in assay [5] it was greater than 100 µM; in [6] it was greater than 100 µM. Besides, the TGI in [7] is greater than 100 µM; in [8], greater than 100 µM; in assay [9], 2.16 µM; in [10], 5.7 µM; in [11], greater than 100 µM; in assay [12] it was greater than 100 µM.

In the case of `O=c1[nH]c2nc3ccccc3c(=O)n2/c1=C/c1cccs1`, the TGI in assay [1], in assay [2], in assay [3], in assay [4], in assay [5] and in assay [6] was greater than 100 µM in each case. Further, the TGI in assay [7], in assay [8], in assay [9], in assay [10], in assay [11] and in [12] was greater than 100 µM in each case.

Consider `Cc1ccnc2c1C(=O)C1=C(OC(C)(C)CC1O)C2=O` (stereo not drawn), for which the TGI in [1] was found to be 44.5 µM; in [2], 15.3 µM; in [3] it was 9.98 µM; in assay [4], 26.9 µM; in assay [5], 12.8 µM; in assay [6], 13 µM. In addition, the TGI in [7] stood at 23 µM; in assay [8] it was 17.5 µM; in [9] it was 10.4 µM; in [10], 0.297 µM; in assay [11], 10.4 µM; in assay [12], 19.4 µM.

Take `CC(=O)SC(C[N+](=O)[O-])c1ccc2c(c1)OCO2` (stereo not drawn): the TGI was greater than 46.4 µM in assay [1]; 3.47 µM in assay [2]; 5.22 µM in assay [3]; 19.9 µM in [4]; 23.1 µM in [5]; 28.9 µM in assay [6]. Besides, the TGI in assay [7] is 3.41 µM; in [8], greater than 82.5 µM; in assay [9], 5.14 µM; in [10] it was 41.1 µM; in [11] it was 11.9 µM; in assay [12] it was 65.7 µM.

Take `O=c1cc(NNc2cccc(Cl)c2)[nH]c(=O)[nH]1`: the TGI in assay [1] was 68.8 µM; in assay [2] it was greater than 100 µM; in assay [3], 31.9 µM; in assay [4] it was 60.1 µM; in assay [5], greater than 100 µM; in [6] it was greater than 100 µM. Besides, the TGI in assay [7] was greater than 100 µM; in [8] it was greater than 100 µM; in [9], greater than 100 µM; in assay [10] it was greater than 100 µM; in assay [11], 33 µM; in [12] it was greater than 100 µM.

Take `CCOC(=O)CCC(NC(=O)OCc1ccccc1)C(=O)NC(CCC(=O)OCC)C(=O)OCC` (stereo not drawn) (Cbz-Glu(OEt)-Glu(OEt)-OEt; configuration not given here): the TGI in [1], in assay [2], in [3], in assay [4], in assay [5] and in [6] was greater than 100 µM each time. Further, the TGI in assay [7], in assay [8], in [9], in assay [10], in assay [11] and in assay [12] was greater than 100 µM in each case.

Take `Cn1nnnc1SC(F)(F)c1nc2ccccc2o1`: the TGI in assay [1], in assay [2], in assay [3], in assay [4], in [5] and in assay [6] was greater than 100 µM throughout. The TGI in assay [7], in assay [8], in assay [9], in assay [10], in assay [11] and in assay [12] was greater than 100 µM in each case.
